Calls of active or inactive are those of the source. No cut-off for these calls is given here.
What was measured:
[1] = molecular target: T1, Hepatic sodium/bile acid cotransporter (Homo sapiens, UniProt Q14973); test: Inhibition of human NTCP-mediated [3H]-TCA uptake expressed in human HepG2 cells at 2 uM; type: cell-based; conditions: hepg2, 2 µM
T1 sequence (Q14973 whole entry): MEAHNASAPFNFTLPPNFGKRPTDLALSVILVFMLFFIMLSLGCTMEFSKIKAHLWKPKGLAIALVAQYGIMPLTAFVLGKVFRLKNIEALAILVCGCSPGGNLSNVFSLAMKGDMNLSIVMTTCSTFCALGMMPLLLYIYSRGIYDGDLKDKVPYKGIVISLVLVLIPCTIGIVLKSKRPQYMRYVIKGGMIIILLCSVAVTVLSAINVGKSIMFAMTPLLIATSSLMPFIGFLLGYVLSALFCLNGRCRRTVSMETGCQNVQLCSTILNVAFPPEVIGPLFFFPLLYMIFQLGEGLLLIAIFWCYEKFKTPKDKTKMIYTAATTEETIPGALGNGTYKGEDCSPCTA

[2] = molecular target: T2, Ileal sodium/bile acid cotransporter (Homo sapiens, UniProt Q12908); test: Inhibition of human ASBT-mediated [3H]-TCA uptake expressed in human HepG2 cells at 2 uM; type: cell-based; conditions: hepg2, 2 µM
T2 sequence (Q12908 whole entry): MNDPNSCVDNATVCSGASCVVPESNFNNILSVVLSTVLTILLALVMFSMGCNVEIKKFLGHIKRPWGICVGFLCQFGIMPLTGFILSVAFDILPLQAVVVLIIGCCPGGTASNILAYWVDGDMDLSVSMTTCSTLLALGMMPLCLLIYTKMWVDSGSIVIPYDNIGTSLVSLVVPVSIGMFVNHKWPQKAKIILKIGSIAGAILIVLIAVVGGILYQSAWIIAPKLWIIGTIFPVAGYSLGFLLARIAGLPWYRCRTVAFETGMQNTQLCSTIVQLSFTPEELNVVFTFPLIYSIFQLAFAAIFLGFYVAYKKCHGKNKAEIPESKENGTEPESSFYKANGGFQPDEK

HepG2 [3] = test: Effect on NTCP surface expression in human HepG2-NTCP cells assessed as reduction in NTCP surface expression level after 2 hrs by immunostaining based assay; type: functional, cell-based
[4] = molecular target: T1, Hepatic sodium/bile acid cotransporter; test: Inhibition of human NTCP-mediated NQL-065 uptake expressed in human HepG2 cells incubated for 30 mins; type: cell-based; conditions: hepg2, 0.5 h
HepG2 [5] = test: Cytotoxicity against human HepG2 cells expressing NTCP assessed as reduction in cell viability at 10 uM after 48 hrs by alamar blue assay; type: cell-based; conditions: hepg2, 48 h
Hepatitis B virus [6] = test: Antiviral activity against HBV infected in human HepG2-NTCP cells assessed as reduction in intracellular accumulation of HBcAg at 1 uM by immunostaining based fluorescence microscopic analysis; type: functional, organism-based
Hepatitis B virus [7] = test: Antiviral activity against HBV infected in human HepG2-NTCP cells assessed as reduction in HBeAg secretion at 1 uM compound added along with viral infection by ELISA; type: functional, organism-based
[8] = molecular target: T1, Hepatic sodium/bile acid cotransporter; test: Inhibition of human NTCP-mediated NQL-064 uptake expressed in human HepG2 cells incubated for 30 mins; type: cell-based; conditions: hepg2, 0.5 h
HepG2 [9] = test: Inhibition of monkey NTCP-mediated [3H]-TCA uptake expressed in human HepG2 cells; type: cell-based; conditions: Macaca mulatta
[10] = molecular target: T3, Solute carrier organic anion transporter family member 1B1 (Homo sapiens, UniProt Q9Y6L6); test: Inhibition of human OATP1B1-mediated [3H]-Estrone sulfate uptake expressed in human HepG2 cells at 2 uM; type: cell-based; conditions: hepg2, 2 µM
T3 sequence (Q9Y6L6 whole entry): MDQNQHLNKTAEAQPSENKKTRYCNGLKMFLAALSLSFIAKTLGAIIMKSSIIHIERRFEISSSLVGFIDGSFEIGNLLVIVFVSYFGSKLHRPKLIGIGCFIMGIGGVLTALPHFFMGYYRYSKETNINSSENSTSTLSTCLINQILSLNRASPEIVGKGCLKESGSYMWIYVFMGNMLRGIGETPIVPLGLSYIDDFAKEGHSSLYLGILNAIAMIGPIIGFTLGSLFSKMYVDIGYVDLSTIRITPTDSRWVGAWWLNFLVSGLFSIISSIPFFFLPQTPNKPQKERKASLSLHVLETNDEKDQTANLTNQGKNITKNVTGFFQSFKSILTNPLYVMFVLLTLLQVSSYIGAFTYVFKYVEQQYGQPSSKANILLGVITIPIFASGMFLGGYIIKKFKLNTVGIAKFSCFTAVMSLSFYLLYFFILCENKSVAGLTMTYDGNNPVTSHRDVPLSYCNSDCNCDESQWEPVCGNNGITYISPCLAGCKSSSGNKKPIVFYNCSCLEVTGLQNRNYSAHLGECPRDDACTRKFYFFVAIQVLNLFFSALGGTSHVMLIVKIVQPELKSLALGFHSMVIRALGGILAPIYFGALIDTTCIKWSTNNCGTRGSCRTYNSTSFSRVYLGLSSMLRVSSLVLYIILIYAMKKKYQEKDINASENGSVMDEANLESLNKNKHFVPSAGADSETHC

Hepatitis B virus [11] = test: Antiviral activity against HBV infected in human HepG2-NTCP cells assessed as reduction in HBeAg secretion at 1 uM preincubated with compound followed by viral infection by ELISA; type: functional, organism-based
[12] = molecular target: T4, Hepatic sodium/bile acid cotransporter (Mus musculus, UniProt O08705); test: Inhibition of mouse NTCP-mediated [3H]-TCA uptake expressed in human HepG2 cells; type: cell-based
T4 sequence (O08705 whole entry): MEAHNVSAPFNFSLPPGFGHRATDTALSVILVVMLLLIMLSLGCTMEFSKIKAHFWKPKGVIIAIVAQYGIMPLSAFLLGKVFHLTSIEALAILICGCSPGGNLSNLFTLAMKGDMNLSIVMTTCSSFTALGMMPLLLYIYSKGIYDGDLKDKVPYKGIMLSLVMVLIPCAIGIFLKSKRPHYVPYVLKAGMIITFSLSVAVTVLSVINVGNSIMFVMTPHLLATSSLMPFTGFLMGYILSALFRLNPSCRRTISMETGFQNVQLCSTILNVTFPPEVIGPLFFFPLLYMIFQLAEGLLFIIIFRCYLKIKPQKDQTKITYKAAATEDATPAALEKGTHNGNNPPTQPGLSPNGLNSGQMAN

[13] = molecular target: T1, Hepatic sodium/bile acid cotransporter; test: Inhibition of FITC-labeled HBV Pre-S1 polypeptide binding to human NTCP expressed in HepG2 cells after 2 to 3 hrs by confocal microscopic analysis; type: cell-based; conditions: time 2-3 hrs
Hepatitis B virus [14] = test: Antiviral activity against HBV infected in human HepG2-NTCP cells assessed as reduction in intracellular HBV RNA level at 1 uM by qPCR analysis; type: functional, organism-based
Hepatitis delta virus = test: Antiviral activity against HDV infected in human HepG2-NTCP cells assessed as reduction in intranuclear accumulation of HDV delta antigen at 5 uM incubated for 24 hrs followed by replacement with fresh medium and measured at day 5 post infection by DAPI staining based confocal microscopic analysis (reference value: 12.1 %); type: functional; parameters: scale not given: the % may be the effect or the level left
Hepatitis B virus [15] = test: Antiviral activity against HBV infected in human HepG2-NTCP cells assessed as reduction in HBeAg secretion at 1 uM pre-infected with virus followed by compound addition by ELISA; type: functional, organism-based
Hepatitis B virus [16] = test: Antiviral activity against HBV infected in human HepG2-NTCP cells assessed as reduction in HBeAg secretion incubated for 24 hrs followed replacement with fresh medium and measured at day 5 post infection by ELISA; type: functional, organism-based
[17] = molecular target: T1, Hepatic sodium/bile acid cotransporter; test: Inhibition of human NTCP-mediated [3H]-TCA uptake expressed in human HepG2 cells; type: cell-based; conditions: for inhibition (INH): human, hepg2

C[C@H](CCC(=O)NCCS(=O)(=O)O)[C@H]1CC[C@H]2[C@@H]3[C@@H](O)C[C@@H]4C[C@H](NC(=O)CCCC(=O)N[C@@H]5CC[C@@]6(C)[C@@H](C5)C[C@H](O)[C@@H]5[C@@H]6CC[C@]6(C)[C@@H]([C@H](C)CCC(=O)NCCS(=O)(=O)O)CC[C@@H]56)CC[C@]4(C)[C@H]3CC[C@]12C
inhibition (INH) [1]: Active
inhibition (INH) [2]: Not Active
Activity (HepG2 [3]): inactive
inhibition (INH) [4]: Active
Activity (HepG2 [5]): Non-Toxic
Activity (Hepatitis B virus [6]): Active
Activity (Hepatitis B virus [7]): Active
inhibition (INH) [8]: Active
inhibition (HepG2 [9]): inactive
inhibition (INH) [10]: Not Active
Activity (Hepatitis B virus [11]): Active
inhibition (INH) [12]: Not Active
inhibition (INH) [13]: Active
Activity (Hepatitis B virus [14]): Active
Activity (Hepatitis delta virus): 2.5%
Activity (Hepatitis B virus [15]): inactive
IC50 (Hepatitis B virus [16]): 41 nM
IC50 [17]: 58.3 nM
inhibition (INH) [17]: Active

C[C@H](CCC(=O)O[C@@H]1CC[C@@]2(C)[C@@H](C1)C[C@H](O)[C@@H]1[C@@H]2CC[C@]2(C)[C@@H]([C@H](C)CCC(=O)NCCS(=O)(=O)O)CC[C@@H]12)[C@H]1CC[C@H]2[C@@H]3[C@@H](O)C[C@@H]4C[C@H](O)CC[C@]4(C)[C@H]3CC[C@]12C
inhibition (INH) [1]: Active
inhibition (INH) [2]: Not Active
Activity (HepG2 [3]): inactive
inhibition (INH) [4]: Active
Activity (HepG2 [5]): Non-Toxic
Activity (Hepatitis B virus [6]): Active
Activity (Hepatitis B virus [7]): Active
inhibition (INH) [8]: Active
inhibition (HepG2 [9]): Active
inhibition (INH) [10]: Not Active
Activity (Hepatitis B virus [11]): Active
inhibition (INH) [12]: Active
inhibition (INH) [13]: Active
Activity (Hepatitis B virus [14]): Active
Activity (Hepatitis delta virus): 1.7%
Activity (Hepatitis B virus [15]): inactive
IC50 (Hepatitis B virus [16]): 58 nM
inhibition (INH) [17]: Active
